Measurements published in patent US20230031406A1, “COMPOUNDS AND COMPOSITIONS FOR TREATING CONDITIONS ASSOCIATED WITH NLRP ACTIVITY” (Novartis AG, priority 2018, published 2023).
One block for each molecule: values may come before it.

What was measured:
[1] = tested on: PMA-differentiated THP-1 cells; assay: IL-1β production in PMA-differentiated THP-1 cells stimulated with gramicidin (hTHP-1 assay containing 2% fetal bovine serum; Procedures 1 and 2); type: cell-based, human; conditions: read-out: hTHP-1 IC50 in 2% FBS, hTHP-1 assay containing 2% fetal bovine serum, Table B5
How it was run: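 PMA 20 ng/ml 16-18 h → trypsinise → 50,000 cells/well, RPMI/2% FBS; cpd 1 h (11-pt, 100–0.0017 μM; DMSO 0.37%); gramicidin 5 μM, 2 h; spin; supernatant IL-1β via HTRF.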

[2] = tested on: PMA-differentiated THP-1 cells; assay: hTHP-1 assay containing 10% fetal bovine serum (IL-1β production, Tables B5 and B6); type: cell-based, human
How it was run: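 IL-1β release from PMA-differentiated THP-1 macrophage-like cells was triggered by 5 μM gramicidin for 2 h after 1 h compound exposure, then measured by HTRF.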

[3] = Homo sapiens, THP-1, read-out: hTHP-1 IC50 in 10% FBS, hTHP-1 assay containing 10% fetal bovine serum, Table B5
[4] = Homo sapiens, THP-1, read-out: hTHP-1 IC50 in 10% FBS, hTHP-1 assay containing 10% fetal bovine serum, Table B6

IC50 [2, 3]: 8 to 40 nM
SMILES: C[C@@H](O)Cn1cc(F)c(S(N)(=O)=NC(=O)Nc2c3c(nc4c2CCC42CC2)CCC3)n1 (stereo partly drawn) [Compound 1119, 4-Fluoro-1-((R)-2-hydroxypropyl)-N′-((1′,5′,6′,7′-tetrahydro-2′H-spiro[cyclopropane-1,3′-dicyclopenta[b,e]pyridin]-8′-yl)carbamoyl)-1H-pyrazole-3-sulfonimidamide]

IC50 [2, 3]: 40 to 200 nM
SMILES: Cc1c(C(F)(F)F)nc2c(c1NC(=O)N=S(N)(=O)c1scc(C(C)(C)O)c1F)CCC2 (centres unmarked) [Compound 1108, 3-Fluoro-4-(2-hydroxy-propan-2-yl)-N′-((3-methyl-2-(trifluoromethyl)-6,7-dihydro-5H-cyclopenta[b]pyridin-4-yl)carbamoyl)thiophene-2-sulfonimidamide]

IC50 [2, 4]: 40 to 200 nM
SMILES: NS(=O)(=NC(=O)Nc1c2c(nc3c1CCC31CC1)CCC2)c1nn(C2CC2)cc1F (centres unmarked) [Example 857, 1-Cyclopropyl-4-fluoro-N′-((1′,5′,6′,7′-tetrahydro-2′H-spiro[cyclopropane-1,3′-dicyclopenta[b,e]pyridin]-8′-yl)carbamoyl)-1H-pyrazole-3-sulfonimidamide]

IC50 ([2]; read-out: hTHP-1 IC50 in 10% FBS, hTHP-1 assay containing 10% fetal bovine serum, Table B5, listed as 839): 1000 to 5000 nM
SMILES: CC(C)(O)c1csc(S(N)(=O)=NC(=O)Nc2c3c(nc4c2CCC4)CCC3)c1F (single isomer, unassigned) [Compound 1107b, (S) or (R)-3-fluoro-N′-((1,2,3,5,6,7-hexahydrodicyclopenta[b,e]pyridin-8-yl)carbamoyl)-4-(2-hydroxypropan-2-yl)thiophene-2-sulfonimidamide]

IC50 ([2]; read-out: hTHP-1 IC50 in 10% FBS, hTHP-1 assay containing 10% fetal bovine serum, Table B5, listed as 847): 5000 to 30000 nM
SMILES: CC(F)(F)n1cc(F)c(S(N)(=O)=NC(=O)Nc2c3c(nc4c2CCC4)CCC3)n1 (single isomer, unassigned) [Compound 1115b, (S) or (R)-1-(1,1-difluoroethyl)-4-fluoro-N′-((1,2,3,5,6,7-hexa-hydrodicyclopenta[b,e]pyridin-8-yl)carbamoyl)-1H-pyrazole-3-sulfonimidamide]

IC50 ([2]; read-out: hTHP-1 IC50 in 10% FBS, hTHP-1 assay containing 10% fetal bovine serum, Table B5, listed as 841): 1000 to 5000 nM
SMILES: Cc1c(C(F)(F)F)nc2c(c1NC(=O)N=S(N)(=O)c1scc(C(C)(C)O)c1F)CCC2 (single isomer, unassigned) [Compound 1108b, (S) or (R)-3-fluoro-4-(2-hydroxypropan-2-yl)-N′-((3-methyl-2-(trifluoromethyl)-6,7-dihydro-5H-cyclopenta[b]pyridin-4-yl)carbamoyl)thiophene-2-sulfonimidamide]

IC50 [2, 4]: 40 to 200 nM
SMILES: NS(=O)(=NC(=O)Nc1c2c(nc3c1CCC31CC1)CCC2)c1nn(C2CC2)cc1F (single isomer, unassigned) [Example 865, (R) or (S)-1-cyclopropyl-4-fluoro-N′-((1′,5′,6′,7′-tetrahydro-2′H-spiro[cyclopropan-1,3′-dicyclopenta[b,e]pyridin]-8′-yl)carbamoyl)-1H-pyrazole-3-sulfonimidamide]

IC50 ([2]; read-out: hTHP-1 IC50 in 10% FBS, hTHP-1 assay containing 10% fetal bovine serum, Table B5, listed as 837): 8 to 40 nM
SMILES: CCn1cc(F)c(S(N)(=O)=NC(=O)Nc2c3c(nc(C(F)(F)F)c2-c2ccc(F)c(F)c2)CCC3)n1 (single isomer, unassigned) [Compound 1113b, (R) or (S)-N′-((3-(3,4-difluorophenyl)-2-(trifluoromethyl)-6,7-dihydro-5H-cyclopenta[b]pyridin-4-yl)carbamoyl)-1-ethyl-4-fluoro-1H-pyrazole-3-sulfonimidamide]

IC50 ([2]; read-out: hTHP-1 IC50 in 10% FBS, hTHP-1 assay containing 10% fetal bovine serum, Table B5, listed as 849): 1000 to 5000 nM
SMILES: CCn1cc(F)c(S(N)(=O)=NC(=O)Nc2c3c(nc(C)c2C(F)(F)F)CCC3)n1 (single isomer, unassigned) [Compound 1116b, (S) or (R)-1-ethyl-4-fluoro-N′-((2-methyl-3-(trifluoromethyl)-6,7-dihydro-5H-cyclopenta[b]pyridin-4-yl)carbamoyl)-1H-pyrazole-3-sulfonimidamide]

IC50 ([2]; read-out: hTHP-1 IC50 in 10% FBS, hTHP-1 assay containing 10% fetal bovine serum, Table B5, listed as 831): 1000 to 5000 nM
SMILES: CC(C)(O)c1csc(S(N)(=O)=NC(=O)Nc2c3c(nc(C4CC4)c2C2CC2)CCC3)c1F (single isomer, unassigned) [Compound 1106b, (S) or (R)-N′-((2,3-dicyclopropyl-6,7-dihydro-5H-cyclopenta[b]pyridin-4-yl)carbamoyl)-3-fluoro-4-(2-hydroxypropan-2-yl)thiophene-2-sulfonimidamide]

IC50 [2, 3]: 40 to 200 nM
SMILES: Cc1nc2c(c(NC(=O)N=S(N)(=O)c3scc(C(C)(C)O)c3F)c1-c1ccccc1)CCC2 (centres unmarked) [Compound 1110, 3-Fluoro-4-(2-hydroxy-propan-2-yl)-N′-((2-methyl-3-phenyl-6,7-dihydro-5H-cyclopenta [b]pyridin-4-yl)carbamoyl)thiophene-2-sulfonimidamide]

Continued, molecule first:

SMILES: CCn1cc(F)c(S(N)(=O)=NC(=O)Nc2c(C)c(C(F)(F)F)nc3c2C(C)CC3)n1 (centres unmarked) [Compound 1100, N′-((3,5-dimethyl-2-(trifluoromethyl)-6,7-dihydro-5H-cyclopenta[b]pyridin-4-yl)carbamoyl)-1-ethyl-4-fluoro-1H-pyrazole-3-sulfonimidamide]
IC50 ([1]; listed as 795): 1000 to 5000 nM | IC50 ([2]; read-out: hTHP-1 IC50 in 10% FBS, hTHP-1 assay containing 10% fetal bovine serum, Table B5, listed as 795): 1000 to 5000 nM

SMILES: CCn1cc(F)c(S(N)(=O)=NC(=O)Nc2c(C)c(C(F)(F)F)nc3c2C(C)CC3)n1 (single isomer, unassigned) [Compound 1100c, (S, R) or (S, S)-N′-((3,5-dimethyl-2-(trifluoromethyl)-6,7-dihydro-5H-cyclopenta[b]pyridin-4-yl)carbamoyl)-1-ethyl-4-fluoro-1H-pyrazole-3-sulfonimidamide]
IC50 ([1]; listed as 819): 5000 to 30000 nM | IC50 ([2]; read-out: hTHP-1 IC50 in 10% FBS, hTHP-1 assay containing 10% fetal bovine serum, Table B5, listed as 819): 5000 to 30000 nM

SMILES: Cc1c(C(F)(F)F)nc2c(c1NC(=O)N=S(N)(=O)c1nn(C(C)(F)F)cc1F)CCC2 (single isomer, unassigned) [Compound 1004a, (R) or (S)-1-(1,1-Difluoroethyl)-4-fluoro-N′-((3-methyl-2-(trifluoromethyl)-6,7-dihydro-5H-cyclopenta[b]pyridin-4-yl)carbamoyl)-1H-pyrazole-3-sulfonimidamide]
IC50 ([2]; read-out: hTHP-1 IC50 in 10% FBS, hTHP-1 assay containing 10% fetal bovine serum, Table B5, listed as 832): 40 to 200 nM

SMILES: CCn1cc(F)c(S(N)(=O)=NC(=O)Nc2c(C)c(C(F)(F)F)nc3c2CC(C)C3)n1 (single isomer, unassigned) [Compound 1101d, (R, R) or (R, S)-N′-((3,6-dimethyl-2-(trifluoromethyl)-6,7-dihydro-5H-cyclopenta[b]pyridin-4-yl)carbamoyl)-1-ethyl-4-fluoro-1H-pyrazole-3-sulfonimidamide]
IC50 ([2]; read-out: hTHP-1 IC50 in 10% FBS, hTHP-1 assay containing 10% fetal bovine serum, Table B5, listed as 824): 200 to 1000 nM

SMILES: Cc1c(C(F)(F)F)ncc(-c2ccnc(C#N)c2)c1NC(=O)N=S(N)(=O)c1sc(C(C)(C)O)nc1CO (centres unmarked) [Compound 812]
IC50 [2, 3]: 40 to 200 nM

SMILES: Cc1c(C(F)(F)F)nc2c(c1NC(=O)N=S(N)(=O)c1cnc(C(F)F)s1)CCC2 (centres unmarked) [Compound 1007, 2-(Difluoromethyl)-N′-((3-methyl-2-(trifluoromethyl)-6,7-dihydro-5H-cyclopenta[b]pyridin-4-yl)carbamoyl)thiazole-5-sulfonimidamide]
IC50 [2, 3]: 5000 to 30000 nM

SMILES: CC(C)(O)c1csc(S(N)(=O)=NC(=O)Nc2c3c(nc(C(F)(F)F)c2C2CC2)CCC3)c1F (single isomer, unassigned) [Compound 1105b, (S) or (R)-N′-((3-cyclopropyl-2-(trifluoromethyl)-6,7-dihydro-5H-cyclopenta[b]pyridin-4-yl)carbamoyl)-3-fluoro-4-(2-hydroxypropan-2-yl)thiophene-2-sulfonimidamide]
IC50 ([2]; read-out: hTHP-1 IC50 in 10% FBS, hTHP-1 assay containing 10% fetal bovine serum, Table B5, listed as 835): 200 to 1000 nM

SMILES: CC(C)n1cc(F)c(S(N)(=O)=NC(=O)Nc2c3c(nc(C(F)(F)F)c2C2CC2)CCC3)n1 (single isomer, unassigned) [Compound 1104a, (R) or (S)-N′-((3-cyclopropyl-2-(trifluoromethyl)-6,7-dihydro-5H-cyclopenta[b]pyridin-4-yl)carbamoyl)-4-fluoro-1-isopropyl-1H-pyrazole-3-sulfonimidamide]
IC50 ([2]; read-out: hTHP-1 IC50 in 10% FBS, hTHP-1 assay containing 10% fetal bovine serum, Table B5, listed as 826): 40 to 200 nM

SMILES: CCn1cc(F)c(S(N)(=O)=NC(=O)Nc2c(C)c(C(F)(F)F)nc3c2CC(C)C3)n1 (single isomer, unassigned) [Compound 1101e, (R, S) or (R, R)-N′-((3,6-dimethyl-2-(trifluoromethyl)-6,7-dihydro-5H-cyclopenta[b]pyridin-4-yl)carbamoyl)-1-ethyl-4-fluoro-1H-pyrazole-3-sulfonimidamide]
IC50 ([2]; read-out: hTHP-1 IC50 in 10% FBS, hTHP-1 assay containing 10% fetal bovine serum, Table B5, listed as 825): 8 to 40 nM

SMILES: Cc1c(C(F)(F)F)nc2c(c1NC(=O)N=S(N)(=O)c1cnc(C(F)F)s1)CCC2 (single isomer, unassigned) [Compound 1007a, (R) or (S)-2-(Difluoromethyl)-N′-((3-methyl-2-(trifluoromethyl)-6,7-dihydro-5H-cyclopenta[b]pyridin-4-yl)carbamoyl)thiazole-5-sulfonimidamide]
IC50 ([2]; read-out: hTHP-1 IC50 in 10% FBS, hTHP-1 assay containing 10% fetal bovine serum, Table B5, listed as 829): 1000 to 5000 nM
